# Results published in patent US5240912A, “Transforming growth factor (TGF) peptides” (priority 1991, dated 1993).
# Like-named read-outs stand apart in the source and are kept apart here. Positions of bridges follow the written chain, without caps; N, C: chain ends. Residues, ends and D or L forms follow the SMILES beside them. No end group written: not given here.
# Assays:
# [1] = system: BSC-1 cells infected with vaccinia virus; format: cell-based, Cercopithecus monkey; conditions: AraC from after the 1 hr adsorption period; 13 and 24 hr post infection
# [2] = system: antiserum directed against peptide III; experiment: Competitive radioimmunoassay with 125I-peptide III; format: binding, rabbit; conditions: for Relative Inhibitory Activity: half-maximal inhibitory concentration relative to peptide III, standard RIA; for effectiveness as inhibitor of precipitation of 125I-peptide III: relative to peptide III
# Description: Reactants were mixed in a final volume of 50 microliters of a solution containing: 20 mM sodium phosphate, at pH 7.4; 200 mM NaCl; 40 mM dithiothreitol; 0.1% (w:v) BSA; 0.1% (w:v) NaN3; ^125 I-peptide III; (10^4 cpm); antiserum at a final dilution of 1/15,000; and other additions, as specified. The reaction was initiated by the addition of antiserum and continued at 23° C. for 90 minutes. An equal volume of 10% formalin-fixed Staphalococcus A (Pansorbin, Calbiochem) was then added and incubation was continued for an additional 30 minutes at 23° C. The immunoadsorbant was removed by sedimentation through a cushion of 10% (w:v) sucrose and the amount of bound ^125 I-peptide III was determined using a gamma counter.
# [3] = target: T1, EGF receptors on A431 cells (Homo sapiens, UniProt P00533); experiment: Binding of 125I-labeled rat TGF to A431 cells
# T1 construct: Human epidermoid carcinoma A431 cells have in excess of 10^6 EGF receptors per cell; endogenous in cells; host or cells: A431 human epidermoid carcinoma cells
# Description: was synthesized using the solid-phase technique of Ohgak et al. (1983) Journal of Immunol. Meth. 57, pp. 171-184. This oligopeptide was then coupled to keyhole limpet hemocyanin in accordance with the procedure of Baron et al. (1982) Cell 28, pp. 395-404, and used to immunize rabbits (Baron et al. (1982) Cell 28, pp. 395-404) and sheep (Lerner (1982) Nature 299, pp. 592-596). Antisera were assayed against peptide by a peroxidase-linked immunoassay (Kirkegaard and Perry Laboratories, Gaithersberg, Md.) and against homogeneous rat TGF (purified according to Example II above), by immunoprecipitation (Bister et al. (1980) J. Virol. 36, pp. 617-621) and Western blotting techniques (Burnett (1981) Analyt. Biochem. 112, pp. 195-203). Binding of ^125 I-labeled rat TGF and mouse EGF (Bethesda Research Labs, Bethesda, Md.) to A431 cells grown in 96-well microtiter plates was as described in Pross et al. (1977) Proc. Natl. Acad. Sci. USA 74, pp. 3918-3921.
# Human epidermoid carcinoma A431 cells have in excess of 10^6 EGF receptors per cell (Fabricant et al. (1977) Proc. Natl. Acad. Sci. USA 74, pp. 565-569). TGF competes with EGF for binding to these receptors. Binding of ^125 I-labeled rat TGF to these cells was blocked by an excess of unlabeled EGF and by antiserum to peptide. […]
# anti-KLH-peptide 1 IgG = experiment: Solid phase RIA, anti-KLH-peptide 1 IgG on BSA-peptide 1 conjugate; format: binding, rabbit
# Description: (1979) J. Immunol. Methods 28, pp. 201-206). Carrier-peptide complexes were purified by gel filtration. […] Rabbits were boosted s.c. every two weeks with the immunogen in incomplete Freund's adjuvant. The IgG fraction of the antiserum after 5 boosts was used for immunoassays and radiolabeled using Na^125 I (NEN) and Enzymobeads (Bio-Rad) to 4×10^5 cpm/μg protein. […] Plates were incubated for 4 hours at 37° C. with [^125 I]anti-KLH-peptide 1 IgG (50,000 cpm/well) in the presence or absence of inhibitors, washed and individual wells were counted.
# [4] = target: T2, EGF receptors on A-431 human epidermoid carcinoma cells (Homo sapiens, UniProt P00533); experiment: [125I]EGF radioreceptor assay on A-431 cells; format: binding
# T2 construct: Human epidermoid carcinoma A431 cells have in excess of 10^6 EGF receptors per cell; endogenous in cells; host or cells: A431 human epidermoid carcinoma cells
# Description: A-431 human epidermoid carcinoma cells or human foreskin fibroblasts (HFF), established from primary cultures, were grown to confluence in 24-well cluster dishes (Costar) in Dulbecco's minimal essential medium (DMEM, Gibco) containing 10% fetal calf serum (FCS, Hyclone). EGF was radio-iodinated as above to between 4×10^4 and 8×10^4 cpm/ng protein. Cells were incubated at 4° C. for 60 minutes with 1 nM [^125 I]EGF in the presence of inhibitor peptides in DMEM (pH 7.4; 20 mM Hepes) containing 0.1% BSA. Cells were washed 3× with cold buffer, lysed with 0.1N NaOH, and cell-associated radioactivity was measured (γ-counter). Nonspecific binding assessed in the presence of a 100x excess of cold EGF was less than 5% and 10% of the specific binding for A-431 and HFF cells, respectively.
# quiescent HFF = experiment: Cell proliferation assay, [3H]methyl-thymidine incorporation; format: cell-based, human
# Description: HFF cells were grown to confluence in 48-well cluster dishes in DMEM-10% FCS and brought to quiescence by starvation for 2 days in DMEM-0.5% FCS. Mitogens and peptides were incubated with cells at 37° C. for 18 hours prior to a 4 hour pulse with 1 μCi [^3 H]methyl-thymidine (NEN) and trichloroacetic acid precipitable radioactivity was determined.
compound,measurement,setting,value
"Nc1ccn([C@@H]2O[C@H](CO)[C@@H](O)[C@@H]2O)c(=O)n1 [AraC, cytosine arabinoside]",VGF production relative to infected control cultures,[1],enhanced more than two-fold
CHSGYVGVRC (cysteine pairing not given here) [Peptide II],Relative Inhibitory Activity,[2],> 1500
EGF: mouse submaxillary gland epidermal growth factor [reference compound],blocking of 125I-labeled rat TGF binding to A431 cells,[3],blocked
same,highest concentration without competition in RIA,[2],greater than 1 μM
same,Relative Inhibitory Activity,[2],> 1500
same,inhibition of reaction of anti-KLH-peptide 1 antibodies with BSA-TGF peptide,anti-KLH-peptide 1 IgG,did not cause significant inhibition
VGVRCEHADLLA [Peptide IV],Relative Inhibitory Activity,[2],3.5
same,effectiveness as inhibitor of precipitation of 125I-peptide III,[2],only slightly less effective
"Ac-Cys-His-Ser-Gly-Tyr-Val-Gly-Ala-Arg-Cys-OMe (Ac-CHSGYVGARC-OMe; disulfide 1-10 (inferred)) [Peptide 3, methyl ester of the corresponding loop of hTGF]",binding potency relative to EGF or TGF-α,[4],~0.2%
CC(=O)N[C@H]1CSSC[C@@H](C(N)=O)NC(=O)[C@H](CCCNC(=N)N)NC(=O)[C@H](C(C)C)NC(=O)CNC(=O)[C@H](C(C)C)NC(=O)[C@H](Cc2ccc(O)cc2)NC(=O)CNC(=O)[C@H](CO)NC(=O)[C@H](Cc2c[nH]cn2)NC1=O [Peptide 2] (Ac-CHSGYVGVRC-NH2; disulfide 1-10),binding potency relative to EGF or TGF-α,[4],approximately 0.02%
VVSHFNKCPDSHT [Peptide I],Relative Inhibitory Activity,[2],> 1500
same,effectiveness as inhibitor of precipitation of 125I-peptide III,[2],ineffective
CHSGYVGVRCEHADLLA (cysteine pairing not given here) [Peptide III],Relative Inhibitory Activity,[2],1
same,IC50,[2]; read-out: concentration producing half-maximal inhibition of precipitation of 125I-peptide III,0.0007 µM
CC(C)[C@@H]1NC(=O)CNC(=O)[C@H](C(C)C)NC(=O)[C@H](Cc2ccc(O)cc2)NC(=O)CNC(=O)[C@H](CO)NC(=O)[C@H](Cc2c[nH]cn2)NC(=O)[C@@H](N)CSSC[C@@H](C(=O)O)NC(=O)[C@H](CCCNC(=N)N)NC1=O [Peptide 1] (H-CHSGYVGVRC-OH; disulfide 1-10),inhibition of reaction of anti-KLH-peptide 1 antibodies with BSA-TGF peptide,anti-KLH-peptide 1 IgG,inhibited in a concentration-dependent fashion
same,concentration giving partial inhibition of [125I]EGF binding,[4],> 10^-6 M
same,IC50,"quiescent HFF; induced by 1 nM of EGF, read-out: Inhibition of Mitogenesis IC50 (M) EGF",> 1e-05 M
same,IC50,"quiescent HFF; induced by 1 nM of TGFα, read-out: Inhibition of Mitogenesis IC50 (M) TGFα",> 1e-05 M
